Structures can show the parent of a compound that is named as a salt.
Legend:
[1] = system: MYH11 promoter-driven luciferase activity; test: High-throughput screening, MYH11-Nluc-2A-Tom reporter human ES cell line, luciferase assay; assay type: cell-based; details: small molecules added day 4-14; selected when normalized reads > average+3×STDEV
Description: FIGS. 1A-1C depict a schematic of high-throughput screening. […] The cells were passaged at day 4 and seeded on the 96-well plate for screening (2×10^6 cells/plate). After the reporter cell line was differentiated into mesoderm, small molecules were added to the cells from day 4 to day 14. FIG. 1B depicts the results of the screening in two batches. The luciferase assay results of individual small molecules were normalized to the average reads of all samples for each batch. The small molecules were selected for further analysis when the normalized reads were greater than “average+3×STDEV”. FIG. 1C depicts optimizing the concentration of the selected small molecules.
The cells were treated with 50 ng/ml FGF2 and 20 ng/ml BMP4 for another two days. The cells were passaged at day 4 and seeded on the 96-well plate for screening (2×10^6 cells/plate). The compounds were added from day 4-14. The Luciferase substrate (1000× dilution) (Nano-Glo Luciferase Assay system, Promega) was added to the medium for 15 min and luminescence was measured. An increase in luminescence indicates increased MYH11 expression, which is an indicator of the contractile smooth muscle cell phenotype. The Thomson custom stem cell Modulator 1, GSK-kinase inhibitor library, SellekChem Kinase inhibitor library, Analyticon NATx library, Prestwick Chemical Library, GlaxoSmithKline Protein Kinase Inhibitors, and part of Enamine Representative Diversity library were used for screening.
High-throughput screening directs contractile smooth muscle cell differentiation—The construction of the MYH11-NLuc-tdTomato human ES cell reporter line generated by CRISPR/Cas9 technology is described in FIGS. 6A-6H. The reporter cell line was differentiated into mesoderm in E8BAC medium (Zhang et al., 2017) for two days and treated with FGF2 and BMP4 to further mature mesoderm for another two days. The cells were then passaged into a 96-well plate and exposed to small molecules for 10 days using a customized robotic workstation (FIG. 1A). The workstation was designed through collaboration with TECAN, which enables us to perform the automatic high-throughput screening at specific time point and in long-term. The medium were changed every other day and the small molecules were added during the feeding. […] We then validated these hits and optimized their concentration.

[2] = system: Human pluripotent stem cell cells (H1); test: Mesoderm differentiation of H1 cells in E8BAC medium; assay type: cell-based; details: CHIR99021 increased to 3 μM (from 1 μM)
Description: The cells reached 80-90% confluency two days later. At the day of the differentiation, ES cells were dissociated by […] (Invitrogen) for 3-5 min at 37 ° C. The cells were plated on a […]-coated plate at 1:4 ratios (1×10^5 cells/cm2). […] An increased CHIR99021 concentration of 3 μM decreased cell proliferation at 36 hours but increased MYH11 expression. At 36 hours, the cells were passaged and seeded on a new […]-coated plate (1.6×10^4 cells/cm2). The low cell density is critical for the differentiation. […] […] (E6 medium+5 μM RESV) medium supplemented with RepSox (25 μM), was then used to further mature SMCs from day 12 to 24. Cells were split (1×10^5 cells/cm2) at day 16 and further differentiated until day 24. The cells can be cryopreserved at day 16 or day 24. […] From day 0-4: medium was changed every day. From day 2-24: medium was changed every other day. For day 1 and day 8-24, 1.5×volumes of medium, compared to the normal volume used in the well, were used.

intimal hyperplasia = details: DeRose 1999; Gulkarov 2009; Sawada 2000; cited from earlier work
endothelium repair = details: Prasad 2005; Zheng 2014; cited from earlier work
MYH11-Tom+ cells = test: Flow cytometric analysis of MYH11-Tom+ cells in SMC differentiation; assay type: cell-based, human; details: with RepSox 25 μM; DAPT 20 μM, DBZ 10 μM, RO04929097 10 μM; day 10-16
Description: Data are represented as mean±standard deviation (SD). […] Scale bar=1 mm. […] Scale bar=50 μm. […] Data are represented as mean±SD. Student's t-test, *: P<0.05, n=3.
FIGS. 7A-7G show the target of RepSox. […] Cells were treated with RepSox (25 μM) or SiRNA. […] Cells were treated with RepSox (25 μM) or SiRNA. […] During the smooth muscle cells differentiation, cells were treated with or without RepSox from day 10-11. […] During the smooth muscle cells differentiation, cells were treated with RepSox for 1 or 20 hours at day 12. […] Cells were treated with RepSox and non-targeting control (NT)/SiRNA at day 10. The RNA was isolated at day 14.
Optimized smooth muscle cell differentiation—Human pluripotent stem cell cells (H1) were cultured in E8 medium on a […]™-coated plate. To achieve the best differentiation results, ES cells were split using EDTA at 1:4 ratios two days before the differentiation. The cells reached 80-90% confluency two days later. At the day of the differentiation, ES cells were dissociated by ACCUTASE™ (Invitrogen) for 3-5 min at 37 ° C. The cells were plated on a […]™-coated plate at 1:4 ratios (1×10^5 cells/cm2). […] An increased CHIR99021 concentration of 3 μM decreased cell proliferation at 36 hours but increased MYH11 expression. At 36 hours, the cells were passaged and seeded on a new […]™-coated plate (1.6×10^4 cells/cm2). The low cell density is critical for the differentiation. A cell density of 1.0-4.0×10^4 cells/cm2 for different cell lines can be tested, such that 100% cell confluence will be achieved at day 6, which gives rise to the best differentiation efficiency. The cells were treated with E6T medium (E8 medium minus FGF2 but still containing 1.7 ng/ml TGF-β1) for 18 hours to induce the transient and medium level expression of MEOX1. E5F medium (E8 medium minus insulin and TGF-β1, but still containing 100 ng/ml FGF2) was used to suppress MEOX1 expression for another 5 days (days 3-8). Next, the cells were treated with E6FVR medium (E6 medium with 100 ng/ml FGF2, 50 ng/ml VEGFA, and 5 μM RESV, a NOTCH agonist) to induce SMC progenitors from day 8-12. E6R (E6 medium+5 μM RESV) medium supplemented with RepSox (25 μM), was then used to further mature SMCs from day 12 to 24. Cells were split (1×10^5 cells/cm2) at day 16 and further differentiated until day 24. The cells can be cryopreserved at day 16 or day 24. For P-SMCs, T-SMCs, and PT-SMCs, RepSox was replaced by PDGF-BB (10 ng/ml), TGF-β1 (1.7 ng/ml), or combination of PDGF-BB and TGF-β1, respectively, from day 12 to 24. From day 0-4: medium was changed every day. From day 2-24: medium was changed every other day. For day 1 and day 8-24, 1.5×volumes of medium, compared to the normal volume used in the well, were used. […]

SMILES | promotes MYH11+ SMC differentiation (increased MYH11 promoter-driven luciferase activity) [1] | other results
CNC(=O)c1cc(Oc2ccc(NC(=O)Nc3ccc(Cl)c(C(F)(F)F)c3)cc2)ccn1 [sorafenib, Sorafenib (Nexavar)] | promotes MYH11^+ SMC differentiation | 
Cc1ccc(NC(=O)c2ccc(CN3CCN(C)CC3)cc2)cc1Nc1nccc(-c2cccnc2)n1 [imatinib, Imatinib Mesylate] | promotes MYH11^+ SMC differentiation | 
Cc1c[nH]c(-c2cnc(NCCNc3ccc(C#N)cn3)nc2-c2ccc(Cl)cc2Cl)n1 [CHIR99021] |  | MYH11 expression [2]: increased; cell proliferation at 36 hours [2]: decreased
CN(C)C(=O)OC1CNC(C#Cc2cc3ncnc(Nc4ccc(OCc5cccc(F)c5)c(Cl)c4)c3s2)C1 (stereo not shown) [GSK182497A] | promotes MYH11^+ SMC differentiation | 
C[C@@H](N)[C@H]1CC[C@H](C(=O)Nc2ccncc2)CC1 [Y27632] | promotes MYH11^+ SMC differentiation | inhibition of intimal hyperplasia in previous studies (intimal hyperplasia): inhibit intimal hyperplasia
N[C@@H](CC(=O)N1CCn2c(nnc2C(F)(F)F)C1)Cc1cc(F)c(F)cc1F [sitagliptin, Sitagliptin] | promotes MYH11^+ SMC differentiation | 
CCO.N#CC(=C(/N)Sc1ccccc1N)/C(C#N)=C(\N)Sc1ccccc1N [UO126, U0126-EtOH] | promotes MYH11^+ SMC differentiation | inhibition of intimal hyperplasia in previous studies (intimal hyperplasia): inhibit intimal hyperplasia
CC1=C(/C=C/C(C)=C/C=C/C(C)=C/C(=O)O)C(C)(C)CCC1 [retinoic acid, All-Trans Retinoic Acid] | promotes MYH11^+ SMC differentiation | inhibition of intimal hyperplasia in previous studies (intimal hyperplasia): inhibit intimal hyperplasia
O=C(Nc1ccc(OC(F)(F)F)cc1)c1sccc1NCc1ccnc2ccccc12 [OSI-930] | promotes MYH11^+ SMC differentiation | 
CC(C(=O)O)c1ccc(-c2ccccc2)c(F)c1 (stereo not shown) [flurbiprofen, Flurbiprofen] | promotes MYH11^+ SMC differentiation | 
NC(=O)c1sc(-n2cnc3ccccc32)cc1OCc1ccccc1Br [GSK1023156A] | promotes MYH11^+ SMC differentiation | 
CC#CCn1c(N2CCC[C@@H](N)C2)nc2c1c(=O)n(Cc1nc(C)c3ccccc3n1)c(=O)n2C [BI-1356] | promotes MYH11^+ SMC differentiation | 
CO[C@H]1C[C@@H]2CC[C@@H](C)[C@@](O)(O2)C(=O)C(=O)N2CCCC[C@H]2C(=O)O[C@H]([C@H](C)C[C@@H]2CC[C@@H](O)[C@H](OC)C2)CC(=O)[C@H](C)/C=C(\C)[C@@H](O)[C@@H](OC)C(=O)[C@H](C)C[C@H](C)/C=C/C=C/C=C/1C [rapamycin] |  | effect on endothelium repair (endothelium repair): suppressed
CNC(=O)c1cc(Oc2ccc(NC(=O)Nc3cc(C(C)(C)C)nn3-c3ccc4ncccc4c3)c(F)c2)ccn1 [DCC-2036, DCC-2036 (Rebastinib)] | promotes MYH11^+ SMC differentiation | 
C[C@H](NC(=O)Cc1cc(F)cc(F)c1)C(=O)N[C@@H]1C(=O)N(C)c2ccccc2-c2ccccc21 [DBZ] |  | effect on RepSox improvement of MYH11-Tom+ cell differentiation (MYH11-Tom+ cells): abolished
COc1cc2ncnc(Nc3ccc4c(cnn4Cc4ccccc4)c3)c2cc1OC [GSK282449A] | promotes MYH11^+ SMC differentiation | 
NS(=O)(=O)c1cc2c(cc1C(F)(F)F)NCNS2(=O)=O [hydroflumethiazide, Hydroflumethiazide] | promotes MYH11^+ SMC differentiation | 
N[C@@H]1C[C@H]1c1ccccc1 [tranylcypromine hydrochloride, Tranylcypromine hydrochloride] | promotes MYH11^+ SMC differentiation | 
Nc1ccc(S(=O)(=O)Nc2ccnn2-c2ccccc2)cc1 [sulfaphenazole, Sulfaphenazole] | promotes MYH11^+ SMC differentiation | 
CC(=O)[N-]S(=O)(=O)c1ccc(N)cc1.O.[Na+] [sulfacetamide sodic hydrate, Sulfacetamide sodic hydrate] | promotes MYH11^+ SMC differentiation | 
CC(C)(C(=O)NCC(F)(F)C(F)(F)F)C(=O)N[C@@H]1C(=O)Nc2ccccc2-c2ccccc21 [R04929097] |  | effect on RepSox improvement of MYH11-Tom+ cell differentiation (MYH11-Tom+ cells): abolished
C[C@H](NC(=O)Cc1cc(F)cc(F)c1)C(=O)N[C@H](C(=O)OC(C)(C)C)c1ccccc1 [DAPT] |  | effect on RepSox improvement of MYH11-Tom+ cell differentiation (MYH11-Tom+ cells): abolished
O=C(O)C(Cc1c[nH]c2ccccc12)N1C(=O)c2ccccc2C1=O (stereo not shown) [RG108] | promotes MYH11^+ SMC differentiation | 
COC(=O)Nc1nc2ccc(Sc3ccc(NC(=O)Nc4cc(C(F)(F)F)ccc4F)cc3)cc2[nH]1 [GSK607049C] | promotes MYH11^+ SMC differentiation | 

From patent US20190010461A1, “HUMAN PLURIPOTENT STEM CELL-BASED SCREENING FOR SMOOTH MUSCLE CELL DIFFERENTIATION AND DISEASE” (Wisconsin Alumni Research Foundation, priority 2017, published 2019)
